# “And” between values parts separate entries of the source, which are not always exact repeats. Equal values may be shown once. Read-outs that look alike come from different tables or passages of the source.
# Columns and labels:
# [1] = molecular target: T1, GST-tAurora A (123-401aa) fusion protein (Homo sapiens, UniProt O14965); test: Aurora Kinase A luminescent kinase assay; format: biochemical; settings: IC50 (concentration of a test compound at which activity of 50% of Aurora A is inhibited)
# T1 construct: GST-tAurora A (123-401aa) fusion protein; made in house; host or cells: Sf9 insect cells (baculovirus, pBacPAK8)
# T1 sequence (O14965 123-401): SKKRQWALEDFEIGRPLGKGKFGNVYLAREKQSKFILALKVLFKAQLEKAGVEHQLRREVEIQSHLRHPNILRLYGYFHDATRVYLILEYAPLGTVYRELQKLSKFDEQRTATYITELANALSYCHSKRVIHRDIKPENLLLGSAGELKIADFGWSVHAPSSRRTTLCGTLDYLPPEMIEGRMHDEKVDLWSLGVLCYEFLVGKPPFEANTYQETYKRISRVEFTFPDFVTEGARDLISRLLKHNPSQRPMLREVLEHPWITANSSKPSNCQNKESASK
# Description: The Aurora A catalytic domain with an N-terminal GST tag was constructed in pBacPAK8 plasmid and expressed in sf9 cells. […] To concentrate GST-tAurora A, buffer was replaced with Tris buffer (100 mM Tris (pH 7.5), 300 mM NaCl, 1 mM EDTA, 4 mM DTT) using Amicon ultra-15 (MWCO:30K, Millipore) to 2.4 mg/ml. After the addition of equal volume of glycerol and 0.04% Triton X-100, the proteins were stored aliquoted at −80° C.
# Briefly, a test compound, enzyme, substrate-tetra(LRRWSLG), DTT and ATP were dissolved in Aur buffer (50 mM Tris-HCl pH 7.4, 10 mM NaCl, 10 mM MgCl2, and 100 μg/ml BSA) individually before the assay. […] 5 μM ATP (5 μl), 1 mM DTT (5 μl) and 0.1 mM tetra(LRRWSLG) peptide substrate (5 μl) were added into the reactions of test compounds and GST-tAurora A. The reactions were incubated at 37° C. for 90 min. 50 μl of Kinase-Glo Plus Reagent (V3771, Promega) was added into the reactions, followed by the incubation at 25° C. for 20 min.
# HCT-116 cells = test: HCT-116 cell viability MTS assay; format: cell-based; settings: Homo sapiens
# Description: HCT-116 cell viability was examined by the MTS assay (Promega, Madison, Wis., USA). 2000 HCT-116 cells in 100 μL McCoy's 5a medium were seeded in each well of a 96-well plate. After 96-h incubation with a test compound, the cells were incubated with 20 μL of a MTS/PMS mixture (MTS/PMS ratio: 20: 1) for 2 h at 37° C. in a humidified incubator with 5% CO2 to allow viable cells to convert the tetrazolium salt (MTS) into formazan. The amount/concentration of formazan, which indicates the number of live cells, was determined by measuring the absorbance at 490 nm using a PerkinElmer Victor2 plate reader (PerkinElmer, Shelton, Cont., USA).
# [2] = read-out: IC50 (concentration of a test compound which causes 50% of the cell death), HCT-116, 96-h incubation, MTS
# [3] = HCT-116, 96 h, read-out: IC50 (concentration of a test compound which causes 50% of the cell death)
# [4] = HCT-116, 96 h, read-out: IC50 (concentration of a test compound which causes 50% of the cell death), HCT-116, 96-h incubation, MTS
Compound,IC50 [1],IC50 (HCT-116 cells; [2]),IC50 (HCT-116 cells; [3]),IC50 (HCT-116 cells; [4])
O=C(Nc1ccccc1)Nc1ccc(CCNc2ncnc3[nH]c(-c4ccccc4)c(-c4ccccc4)c23)cc1 [Compound 172],45 to 400 nM and < 1000 nM,100 to 900 nM,–,–
O=C(Nc1ccccc1)Nc1ccc(CCNc2ncnc3cc(-c4ccccc4)oc23)cc1 [Compound 176],< 1000 nM,100 to 900 nM,–,–
O=C(Nc1ccccc1)Nc1ccc(CCNc2ncnc3sc4c(c23)CCC4)cc1 [Compound 196],45 to 400 nM and < 1000 nM,100 to 900 nM,–,–
O=C(Nc1ccccc1)Nc1ccc(CCNc2ncnc3oc(-c4ccccc4)c(C#CCO)c23)cc1 [Compound 202],< 1000 nM and 45 to 400 nM,100 to 900 nM,–,–
COc1ccc(-c2cc3c(NCCc4ccc(NC(=O)Nc5ccccc5)cc4)ncnc3o2)cc1 [Compound 204],< 1000 nM and 45 to 400 nM,100 to 900 nM,–,–
O=C(Nc1ccccc1)Nc1ccc(CCNc2ncnc3oc(-c4ccc(O)cc4)cc23)cc1 [Compound 205],< 1000 nM and 45 to 400 nM,< 100 nM,–,–
CN(C)Cc1ccccc1NC(=O)Nc1ccc(CCNc2ncnc3oc(-c4ccccc4)cc23)cc1 [Compound 211],< 1000 nM and 45 to 400 nM,100 to 900 nM,–,–
O=C(Nc1ccccc1)Nc1ccc(CCNc2ncnc3oc(Cl)c(-c4ccccc4)c23)cc1 [Compound 213],< 1000 nM,100 to 900 nM,–,–
O=C(Nc1ccc(CCNc2ncnc3oc(-c4ccccc4)c(-c4ccccc4)c23)cc1)NC1CCC1 [Compound 214],45 to 400 nM and < 1000 nM,100 to 900 nM,–,–
O=C(NCCCl)Nc1ccc(CCNc2ncnc3oc(-c4ccccc4)cc23)cc1 [Compound 215],< 1000 nM,–,100 to 900 nM,–
O=C(NCCCl)Nc1ccc(CCNc2ncnc3oc(-c4ccccc4)c(Cl)c23)cc1 [Compound 217],< 1000 nM and 45 to 400 nM,–,100 to 900 nM,–
O=C(NCCN1CCOCC1)Nc1ccc(CCNc2ncnc3oc(-c4ccccc4)c(Cl)c23)cc1 [Compound 218],< 1000 nM and 45 to 400 nM,100 to 900 nM,–,–
O=C(Nc1ccccc1)Nc1ccc(CCNc2ncnc3oc(-c4ccccc4)c(-c4cccc([N+](=O)[O-])c4)c23)cc1 [Compound 219],< 1000 nM and 45 to 400 nM,100 to 900 nM,–,–
Cc1oc2ncnc(NCCc3ccc(NC(=O)Nc4ccccc4)cc3)c2c1C [Compound 220],< 1000 nM and 45 to 400 nM,100 to 900 nM,–,–
COc1cccc(-c2cc3c(NCCc4ccc(NC(=O)Nc5ccccc5)cc4)ncnc3o2)c1 [Compound 221],< 1000 nM and 45 to 400 nM,100 to 900 nM,–,–
CCCCNC(=O)Nc1ccc(CCNc2ncnc3oc(-c4ccccc4)c(-c4ccccc4)c23)cc1 [Compound 222],< 1000 nM and 45 to 400 nM,100 to 900 nM,–,–
O=C(Nc1ccccc1)Nc1ccc(CCNc2ncnc3oc(-c4cccc(O)c4)cc23)cc1 [Compound 223],< 1000 nM and 45 to 400 nM,100 to 900 nM,–,–
CN(C)CCOc1cccc(-c2cc3c(NCCc4ccc(NC(=O)Nc5ccccc5)cc4)ncnc3o2)c1 [Compound 224],< 1000 nM and 45 to 400 nM,–,–,100 to 900 nM
O=C(Nc1ccccc1)Nc1ccc(CCNc2ncnc3oc(-c4ccccc4)c(CO)c23)cc1 [Compound 225],< 1000 nM and 45 to 400 nM,100 to 900 nM,–,–
Cc1c(-c2ccccc2)oc2ncnc(NCCc3ccc(NC(=O)Nc4ccccc4)cc3)c12 [Compound 226],< 1000 nM and 45 to 400 nM,100 to 900 nM,–,–

Compound,IC50 [1],IC50 (HCT-116 cells; [2]),IC50 (HCT-116 cells; [3]),IC50 (HCT-116 cells; [4])
O=C(Nc1ccccc1)Nc1ccc(CCNc2ncnc3oc(-c4ccc(OCCN5CCOCC5)cc4)cc23)cc1 [Compound 230],45 to 400 nM and < 1000 nM,100 to 900 nM,–,–
O=C(Nc1ccc(CCNc2ncnc3oc(-c4ccccc4)c(Cl)c23)cc1)Nc1cccnc1 [Compound 232],45 to 400 nM and < 1000 nM,100 to 900 nM,–,–
O=C(Nc1ccccc1)Nc1ccc(CCNc2ncnc3oc(-c4ccc(OCCCl)cc4)cc23)cc1 [Compound 235],< 1000 nM and 45 to 400 nM,100 to 900 nM,–,–
O=C(Nc1ccccc1)Nc1ccc(CCNc2ncnc3oc(-c4ccc(OCCN5CCC(CO)CC5)cc4)cc23)cc1 [Compound 236],< 1000 nM and 45 to 400 nM,100 to 900 nM,–,–
O=C(Nc1ccccc1)Nc1ccc(CCNc2ncnc3oc(-c4ccc(OCCCN5CCC(CO)CC5)cc4)cc23)cc1 [Compound 237],< 1000 nM and 45 to 400 nM,100 to 900 nM,–,–
O=C(Nc1ccccc1)Nc1ccc(CCNc2ncnc3oc(-c4ccc(OCCN5CCC(O)CC5)cc4)cc23)cc1 [Compound 239],< 1000 nM and 45 to 400 nM,100 to 900 nM,–,–
O=C(Nc1ccccc1)Nc1ccc(CCNc2ncnc3oc(-c4ccc(OCCCN5CCC(O)CC5)cc4)cc23)cc1 [Compound 240],< 1000 nM and 45 to 400 nM,100 to 900 nM,–,–
O=C(Nc1ccccc1)Nc1ccc(CCNc2ncnc3oc(-c4ccc(OCCCN5CCC[C@H]5CO)cc4)cc23)cc1 [Compound 241],< 1000 nM and 45 to 400 nM,100 to 900 nM,–,–
COc1ccc(-c2oc3ncnc(NCCc4ccc(NC(=O)Nc5ccccc5)cc4)c3c2Cl)cc1 [Compound 244],< 1000 nM and 45 to 400 nM,100 to 900 nM,–,–
COc1ccc(-c2cc3c(NCCc4ccc(NC(=O)Nc5ccccc5CN(C)C)cc4)ncnc3o2)cc1 [Compound 245],< 1000 nM,100 to 900 nM,–,–
CN(C)CCCOc1ccc(-c2cc3c(NCCc4ccc(NC(=O)Nc5ccccc5)cc4)ncnc3o2)cc1 [Compound 247],45 to 400 nM and < 1000 nM,–,–,100 to 900 nM
O=C(Nc1ccccc1)Nc1ccc(CCNc2ncnc3sc4c(c23)CCCCC4)cc1 [Compound 248],< 1000 nM,100 to 900 nM,–,–
O=C(Nc1ccccc1)Nc1ccc(CCNc2ncnc3oc(-c4ccccc4)c(C#CCCO)c23)cc1 [Compound 249],45 to 400 nM and < 1000 nM,100 to 900 nM,–,–
O=C(Nc1ccccc1)Nc1ccc(CCNc2ncnc3oc(-c4ccccc4)c(-c4ccc(CO)o4)c23)cc1 [Compound 250],45 to 400 nM and < 1000 nM,100 to 900 nM,–,–
O=C(Nc1ccccc1)Nc1ccc(CCNc2ncnc3oc(-c4ccccc4)c(CCCCO)c23)cc1 [Compound 251],< 1000 nM,100 to 900 nM,–,–
CN(C)Cc1cccc(NC(=O)Nc2ccc(CCNc3ncnc4oc(-c5ccccc5)c(Cl)c34)cc2)c1 [Compound 252],< 1000 nM,100 to 900 nM,–,–
CN(C)Cc1ccc(NC(=O)Nc2ccc(CCNc3ncnc4oc(-c5ccccc5)c(Cl)c34)cc2)cc1 [Compound 253],45 to 400 nM and < 1000 nM,100 to 900 nM,–,–
Cc1oc2ncnc(NCCc3cnc(NC(=O)Nc4ccccc4)s3)c2c1C [Compound 254],45 to 400 nM and < 1000 nM,100 to 900 nM,–,–
O=C(Nc1ccccc1)Nc1ncc(CCNc2ncnc3oc(-c4ccccc4)cc23)s1 [Compound 255],< 1000 nM,100 to 900 nM,–,–
O=C(Nc1ccccc1)Nc1ncc(CCNc2ncnc3oc(-c4ccccc4)c(Cl)c23)s1 [Compound 256],45 to 400 nM and < 1000 nM,100 to 900 nM,–,–
